Results published in patent US20050176746A1, “Use of compounds that are effective as selective opiate receptor modulators” (priority 2002, published 2005).

Tests used:
[1] = tested on: colon of healthy subjects; assay: Barostat test (intubated colonic procedure: fasting colonic volume, sensation and pain to distension), Phase I study, 7-day treatment; assay type: in vivo, human; parameters: key to sensation to distension (VAS score) / pain to distension (VAS score): 100 mm visual analog scale
Excerpt: (§1) A a single center, randomized, double-blind, placebo controlled, parallel group Phase I study has been performed. The trial evaluates the effects of a 7-day treatment with 2 different doses of the peripherally selective opiate receptor modulator asimadoline (N-methyl-N-[(1S)-1-phenyl-2-((3S)-3-hydroxypyrrolidin-1-yl)ethyl]-2,2-diphenylacetamide hydrochloride, EMD 61 753) on gastrointestinal and colonic transit and sensorimotor functions in healthy subjects in comparison to placebo.
(§2) A further aim of the study was to compare the gastrointestinal and colonic transit profiles during the 7-day treatment. The studies on lower dosage (0.15 mg/kg and 0.5 mg/kg versus placebo) were performed separately as Part A and the studies on higher dosage (1.5 mg/kg versus placebo) were performed separately as Part B of the studies (see FIGS. 1 to 4).
All subjects are presented to the General Clinical Research Center at Charlton 7, General Clinical Research Center, on visit 3 after overnight bowel preparation with the oral colonic lavage solution (2-5 L of polyethylene glycol 3350 and electrolyte solution, NuLytely™, Abbott Laboratories, Chicago. IL), and a 12-hour fast.
Flexible colonoscopy is performed to evaluate the left side of the colon and to place a teflon guidewire into the proximal colon under fluoroscopic control. The endoscope is withdrawn.
A barostat catheter is inserted into the colon along the guidewire so that the barostat balloon is located in the upper sigmoid or descending colon. The catheter is connected to a barostat machine using an infinitely compliant 10-cm long balloon with a maximum volume of 600 cc (Hefty Baggies, Mobil Chemical Co., Pittsford, N.Y.) linked to an electronic barostat (Mayo rigid barostat, Mayo Foundation Engineering Department, Rochester, Minn.) which has a rigid piston. The manometric portion comprises six waterperfused (0.4 ml/min) pneumohydraulic sensors, three in the descending colon (sensor numbers 1-3) and three in the sigmoid colon (sensor numbers 4-6). The manometric sensors are 5 cm apart, while the first and second sensors are 5 cm oral and caudal to the balloon respectively. To decrease the effects of abdominal viscera on the balloon volume, the studies are performed with the subjects in a semi-prone position during the entire duration of the study.
Previous studies have shown that an initial “conditioning” distension to 20 mmHg renders subsequent assessments of compliance and perception more reproducible [15. 47. 48]. Following the conditioning distension, colonic compliance and sensory thresholds are measured by ramp inflation with increments of 4 mmHg, o steps at 30 second intervals from 0 to 44 mmHg; thresholds for first sensation and sensation of pain are thus determined using the ascending method of limits.
Immediately prior to assessment of colonic sensation, four 100 mm visual analog scales (VAS) scales using the anchor points “tired-energetic”, “peaceful-tense” and “worried-relaxed” and “active-drowsy” are used to determine the level of arousal, anxiety or stress being experienced by the subject. […] Subsequently, randomized-order phasic distensions at 8, 16, 24, and 32 mm Hg above operating pressure are applied to measure the sensations of gas or pain.
For rating sensory perception, the participants are asked to mark two separate VAS for abdominal pain and feeling of gas at a standardized time, 20 seconds after the distension had commenced. The VAS are anchored at the ends by the descriptions “unnoticeable” and “unbearable”. During assessment of sensation, verbal interaction between the subject and investigator is minimized.
Colonic sensation is assessed before and 1 h after drug administration during the measurement of colonic compliance. This is equivalent to finding the threshold pressures or the initial perception and pain perception during sequential pressure increments using the ascending method of limits.
The participant is allowed to rest for 15 minutes. […]

healthy subjects = assay: Satiety test (nutrient drink; maximum volume ingested and postprandial symptoms), Phase I study, 7-day treatment; assay type: in vivo, human
Excerpt: as §1
All subjects have undergone a satiety test prior to and under medication, a scintigraphic gastric and colonic transit test, and, after overnight bowel preparation, a barostat test assessing colonic compliance and colonic sensation prior to and under medication, and fasting colonic tone and colonic response to a standardized meal under medication.
Specific aims of this study have been the comparison of the effects of 7 day treatment with placebo and three doses of asimadoline as described above on: • satiety after ingestion of a nutrient drink • colonic aggregate sensation score in response to distension in healthy subjects • thresholds for colonic sensation of gas and pain in response to distension in healthy subjects • fasting colonic compliance and tone • postprandial tonic response to standard meal ingestion
as §2
The primary endpoint in the satiety test is difference to baseline in the aggregate satiety score 30 min after full satiety.
The analysis of primary motility endpoints (gastric residual percent at 2 hrs, colonic filling (CF) percent at 6 hrs. and colonic geometric center at 24 hrs)and the maximum satiety volume (at day 5) is based on one-way analysis of variance or analysis of covariance methods. The proportions (GE at 2 hrs and CF at 6 hrs)may warrant transformation (e.g., sin^−1{square root}) prior to analysis to stabilize variation across treatment groups. Analysis of the satiety volumes incorporates the baseline value as a covariate in addition to BMI; or alternatively, the relative changes (log [day 5 volume/baseline volume]) are analyzed with BMI as a covariate.

CN(C(=O)C(c1ccccc1)c1ccccc1)[C@H](CN1CC[C@H](O)C1)c1ccccc1.Cl [asimadoline, N-methyl-N-[(1S)-1-phenyl-2-((3S)-3-hydroxypyrrolidin-1-yl)ethyl]-2,2-diphenylacetamide hydrochloride]
fasting volume of the colon at 0 mm pressure ([1]; 0.15 mg/kg, Part A (placebo 1 ml)): 8 mL | fasting volume versus placebo (in words) ([1]; 0.5 mg/kg): significantly higher | fasting volume of the colon at 0 mm pressure ([1]; 0.5 mg/kg, Part A (placebo 1 ml)): 21 mL | perception of distension (in words) ([1]; 0.5 mg/kg, low pressure (8 mm Hg), effect decreases by increasing pressure): significantly reduced | fasting volume of the colon at 0 mm pressure ([1]; 1.5 mg/kg, Part B (placebo 6 ml)): 24 mL | pain to distension (VAS score) ([1]; 8 mm Hg, 0.15 mg/kg, Part A (placebo 22)): 25 | sensation to distension (VAS score) ([1]; 8 mm Hg, 0.15 mg/kg, Part A (placebo 37)): 38 | pain to distension (VAS score) ([1]; 8 mm Hg, 0.5 mg/kg, Part A (placebo 22)): 18 | sensation to distension (VAS score) ([1]; 8 mm Hg, 0.5 mg/kg, Part A (placebo 37)): 26 | pain to distension (VAS score) ([1]; 8 mm Hg, 1.5 mg/kg, Part B (placebo 14)): 30 | sensation to distension (VAS score) ([1]; 8 mm Hg, 1.5 mg/kg, Part B (placebo 20)): 31 | pain to distension (VAS score) ([1]; 16 mm Hg, 0.15 mg/kg, Part A (placebo 33)): 28 | sensation to distension (VAS score) ([1]; 16 mm Hg, 0.15 mg/kg, Part A (placebo 43)): 37 | pain to distension (VAS score) ([1]; 16 mm Hg, 0.5 mg/kg, Part A (placebo 33)): 28 | sensation to distension (VAS score) ([1]; 16 mm Hg, 0.5 mg/kg, Part A (placebo 43)): 37 | pain to distension (VAS score) ([1]; 16 mm Hg, 1.5 mg/kg, Part B (placebo 21)): 37 | sensation to distension (VAS score) ([1]; 16 mm Hg, 1.5 mg/kg, Part B (placebo 23)): 38 | pain to distension (VAS score) ([1]; 24 mm Hg, 0.15 mg/kg, Part A (placebo 38)): 30 | sensation to distension (VAS score) ([1]; 24 mm Hg, 0.15 mg/kg, Part A (placebo 43)): 45 | pain to distension (VAS score) ([1]; 24 mm Hg, 0.5 mg/kg, Part A (placebo 38)): 32 | sensation to distension (VAS score) ([1]; 24 mm Hg, 0.5 mg/kg, Part A (placebo 43)): 41 | pain to distension (VAS score) ([1]; 24 mm Hg, 1.5 mg/kg, Part B (placebo 30)): 40 | sensation to distension (VAS score) ([1]; 24 mm Hg, 1.5 mg/kg, Part B (placebo 42)): 41 | pain to distension (VAS score) ([1]; 32 mm Hg, 0.15 mg/kg, Part A (placebo 48)): 42 | sensation to distension (VAS score) ([1]; 32 mm Hg, 0.15 mg/kg, Part A (placebo 54)): 53 | pain to distension (VAS score) ([1]; 32 mm Hg, 0.5 mg/kg, Part A (placebo 48)): 38 | sensation to distension (VAS score) ([1]; 32 mm Hg, 0.5 mg/kg, Part A (placebo 54)): 47 | pain to distension (VAS score) ([1]; 32 mm Hg, 1.5 mg/kg, Part B (placebo 43)): 47 | sensation to distension (VAS score) ([1]; 32 mm Hg, 1.5 mg/kg, Part B (placebo 51)): 43 | perception of pain (in words) ([1]; Barostat test, no dose stated): no significant reduction in the perception of pain could be observed | scores for pain and sensation versus placebo (in words) ([1]; higher doses (1.5 mg/kg)): significantly higher scores for pain and sensation were observed versus placebo | maximum ingested volume versus placebo (in words) (healthy subjects; 0.15 mg/kg): increase the maximum ingested volume slightly versus placebo | aggregate postprandial symptoms (VAS score) (healthy subjects; 0.15 mg/kg, Part A (placebo 180)): 187 | maximum volume ingested (satiety test) (healthy subjects; 0.15 mg/kg, study Part A (placebo 1280 ml)): 1425 mL | maximum ingested volume versus placebo (in words) (healthy subjects; 0.5 mg/kg): increase the maximum ingested volume significantly versus placebo | aggregate postprandial symptoms (VAS score) (healthy subjects; 0.5 mg/kg, Part A (placebo 180)): 170 | maximum volume ingested (satiety test) (healthy subjects; 0.5 mg/kg, study Part A (placebo 1280 ml)): 1470 mL | postprandial symptoms with higher ingested volume (in words) (healthy subjects; 1.5 mg/kg): symptoms increased with increased volume ingested | aggregate postprandial symptoms (VAS score) (healthy subjects; 1.5 mg/kg, Part B (placebo 162)): 192 | maximum volume ingested (satiety test) (healthy subjects; 1.5 mg/kg, study Part B (placebo 1300 ml)): 1390 mL | postprandial symptoms with higher ingested volume (in words) (healthy subjects; dosis in the range of 0.5 mg/kg): not associated with an increase in symptoms | maximum ingested volume, dose dependency (in words) (healthy subjects; higher concentration (1.5 mg/kg)): ceiling effect established | maximum ingested volume, dose dependency (in words) (healthy subjects; lower end of the dosis range (0.15 mg/kg)): dose response effect established
